Data taken from PubChem BioAssay AID256 (DTP/NCI, 2004).
Values joined by “and” are separate entries in the source; they are usually repeats but may differ in a detail not shown here. Identical values can stand only once. Toxic doses and inconclusive results are not listed. How the source made its calls: active means survival T/C of 150% or more; inactive means T/C below 125% in these data.

System: CD2F1 mice, L1210 leukemia ip, survival T/C
Assay: NCI In Vivo Anticancer Drug Screen. Data for tumor model L1210 Leukemia (intraperitoneal) in CD2F1 (CDF1) mice
Conditions: higher = longer survival
Procedure, shortened: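 Each value reflects a quotient of treated over vehicle control outcomes in mice with a transplanted tumor.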

[1] = endpoint: mean survival time, dose: 100.0 mg/kg/injection, schedule: Q01DX009 (ip), vehicle: saline with Tween-80
[2] = endpoint: mean survival time, dose: 200.0 mg/kg/injection, schedule: Q01DX009 (ip), vehicle: saline with Tween-80
[3] = endpoint: mean survival time, dose: 400.0 mg/kg/injection, schedule: Q01DX009 (ip), vehicle: saline with Tween-80
[4] = endpoint: mean survival time, dose: 100.0 mg/kg/injection, schedule: Q04DX003 (ip), vehicle: saline
[5] = endpoint: mean survival time, dose: 200.0 mg/kg/injection, schedule: Q04DX003 (ip), vehicle: saline
[6] = endpoint: mean survival time, dose: 400.0 mg/kg/injection, schedule: Q04DX003 (ip), vehicle: saline
[7] = endpoint: mean survival time, dose: 12.5 mg/kg/injection, schedule: Q01DX009 (ip), vehicle: saline with Tween-80
[8] = endpoint: mean survival time, dose: 25.0 mg/kg/injection, schedule: Q01DX009 (ip), vehicle: saline with Tween-80
[9] = endpoint: mean survival time, dose: 100.0 mg/kg/injection, schedule: Q04DX003 (ip), vehicle: saline with Tween-80
[10] = endpoint: mean survival time, dose: 200.0 mg/kg/injection, schedule: Q04DX003 (ip), vehicle: saline with Tween-80
[11] = endpoint: mean survival time, dose: 400.0 mg/kg/injection, schedule: Q04DX003 (ip), vehicle: saline with Tween-80

Measured: T/C

O=c1[nH]c(=O)n(C2OC(CO)C3OP(=O)(C45CC6CC(CC(C6)C4)C5)OC32)cc1Br (configuration not stated)
inactive: endpoint: mean survival time, dose: 12.5 mg/kg/injection, schedule: Q01DX005 (ip), vehicle: other 93 % of control | endpoint: mean survival time, dose: 25.0 mg/kg/injection, schedule: Q01DX005 (ip), vehicle: other 97 % of control | endpoint: mean survival time, dose: 50.0 mg/kg/injection, schedule: Q01DX005 (ip), vehicle: other 93 % of control | endpoint: mean survival time, dose: 100.0 mg/kg/injection, schedule: Q01DX005 (ip), vehicle: other 93 % of control | endpoint: mean survival time, dose: 200.0 mg/kg/injection, schedule: Q01DX005 (ip), vehicle: other 93 % of control

CSc1nc(NN)n2nccc2n1
inactive: endpoint: median survival time, dose: 50.0 mg/kg/injection, schedule: Q01DX005 (ip), vehicle: saline 104 % of control | endpoint: median survival time, dose: 100.0 mg/kg/injection, schedule: Q01DX005 (ip), vehicle: saline 103 % of control

O=C1CSc2ccccc2N1CCN1C(=O)CSc2ccccc21
inactive: endpoint: mean survival time, dose: 100.0 mg/kg/injection, schedule: Q04DX003 (ip), vehicle: Klucel (hydroxypropylcellulose) (HPC) 90 % of control | endpoint: mean survival time, dose: 200.0 mg/kg/injection, schedule: Q04DX003 (ip), vehicle: Klucel (hydroxypropylcellulose) (HPC) 86 % of control | endpoint: mean survival time, dose: 400.0 mg/kg/injection, schedule: Q04DX003 (ip), vehicle: Klucel (hydroxypropylcellulose) (HPC) 86 % of control

COc1ccc2nc3cc(Cl)ccc3c(N)c2c1
inactive: endpoint: mean survival time, dose: 2.5 mg/kg/injection, schedule: Q01DX009 (ip), vehicle: Klucel (hydroxypropylcellulose) (HPC) 110 % of control | endpoint: mean survival time, dose: 5.0 mg/kg/injection, schedule: Q01DX009 (ip), vehicle: Klucel (hydroxypropylcellulose) (HPC) 103 % of control | endpoint: mean survival time, dose: 10.0 mg/kg/injection, schedule: Q01DX009 (ip), vehicle: Klucel (hydroxypropylcellulose) (HPC) 98 % of control

CCC[S][Pb]([c]1ccccc1)([c]1ccccc1)[c]1ccccc1
inactive: endpoint: mean survival time, dose: 10.0 mg/kg/injection, schedule: Q01DX001 (ip), vehicle: Klucel (hydroxypropylcellulose) (HPC) 98 % of control | endpoint: mean survival time, dose: 20.0 mg/kg/injection, schedule: Q01DX001 (ip), vehicle: Klucel (hydroxypropylcellulose) (HPC) 101 % of control | endpoint: mean survival time, dose: 40.0 mg/kg/injection, schedule: Q01DX001 (ip), vehicle: Klucel (hydroxypropylcellulose) (HPC) 104 % of control

CC(=O)OCC(=O)C1(O)CCC2C3CCC4=CC(=O)CCC4(C)C34OC4CC21C (configuration not stated)
inactive: [1] 98 % of control | [2] 94 % of control | [3] 91 % of control

OCC1OC(n2ccc3c(NO)ncnc32)C(O)C1O (configuration not stated)
inactive: endpoint: mean survival time, dose: 5.0 mg/kg/injection, schedule: Q01DX001 (ip), vehicle: saline 111 % of control | endpoint: mean survival time, dose: 10.0 mg/kg/injection, schedule: Q01DX001 (ip), vehicle: saline 118 % of control

CCOP(=S)(OCC)N1CC1
inactive: endpoint: mean survival time, dose: 100.0 mg/kg/injection, schedule: Q04DX002 (ip), vehicle: saline with Tween-80 104 % of control | endpoint: mean survival time, dose: 200.0 mg/kg/injection, schedule: Q04DX002 (ip), vehicle: saline with Tween-80 93 % of control | endpoint: mean survival time, dose: 400.0 mg/kg/injection, schedule: Q04DX002 (ip), vehicle: saline with Tween-80 89 % of control

CN(C)C(C)(C)P(=O)(O)O
inactive: [4] 98 % of control | [5] 96 % of control | [6] 96 % of control

O=C(Nc1cccnc1)c1ccccc1
inactive: endpoint: mean survival time, dose: 6.25 mg/kg/injection, schedule: Q01DX009 (ip), vehicle: saline with Tween-80 102 % of control | [7] 102 % of control | [8] 113 % of control

CC(C)(C)CC(C)(C)c1ccc(OCCOc2ccc(C(=O)Nc3ccc(S(=O)(=O)Oc4ccccc4)cc3)cc2[N+](=O)[O-])cc1
inactive: endpoint: mean survival time, dose: 100.0 mg/kg/injection, schedule: Q01DX009 (ip), vehicle: Klucel (hydroxypropylcellulose) (HPC) 101 % of control | [9] 98 % of control | endpoint: mean survival time, dose: 200.0 mg/kg/injection, schedule: Q01DX009 (ip), vehicle: Klucel (hydroxypropylcellulose) (HPC) 106 % of control | [10] 93 % of control | endpoint: mean survival time, dose: 400.0 mg/kg/injection, schedule: Q01DX009 (ip), vehicle: Klucel (hydroxypropylcellulose) (HPC) 95 % of control | [11] 92 % of control

CCCCCCC#CC(=O)OC
inactive: [1] 101 % of control | [9] 96 % of control | [2] 101 % of control | [10] 102 % of control | [11] 97 % of control

CC(=S)NC(O)C(=O)c1ccccc1 (configuration not stated)
inactive: [7] 101 % of control | [8] 98 % of control | endpoint: mean survival time, dose: 50.0 mg/kg/injection, schedule: Q01DX009 (ip), vehicle: saline with Tween-80 98 % of control | [1] 104 % of control | [2] 93 % of control | [3] 115 % of control

COC(=N)Cc1ccc(OC)c(OC)c1
inactive: [9] 102 % of control | [10] 96 % of control | [11] 94 % of control

N#CN=Nc1ccc(Cl)cc1
inactive: endpoint: mean survival time, dose: 9.5 mg/kg/injection, schedule: Q01DX001 (ip), vehicle: other 97 % of control | endpoint: mean survival time, dose: 19.0 mg/kg/injection, schedule: Q01DX001 (ip), vehicle: other 97 % of control | endpoint: mean survival time, dose: 38.0 mg/kg/injection, schedule: Q01DX001 (ip), vehicle: other 89 % of control

CCCCCCCCCCCCCOc1ccc2ccccc2c1
inactive: endpoint: mean survival time, dose: 100.0 mg/kg/injection, schedule: Q01DX001 (ip), vehicle: Klucel (hydroxypropylcellulose) (HPC) 107 % of control | endpoint: mean survival time, dose: 200.0 mg/kg/injection, schedule: Q01DX001 (ip), vehicle: Klucel (hydroxypropylcellulose) (HPC) 96 % of control | endpoint: mean survival time, dose: 400.0 mg/kg/injection, schedule: Q01DX001 (ip), vehicle: Klucel (hydroxypropylcellulose) (HPC) 87 % of control

c1ccc(-c2cc3cc4ccccc4cn3c2)cc1
inactive: endpoint: median survival time, dose: 50.0 mg/kg/injection, schedule: Q01DX009 (ip), vehicle: saline with Tween-80 104 % of control | endpoint: median survival time, dose: 100.0 mg/kg/injection, schedule: Q01DX009 (ip), vehicle: saline with Tween-80 100 % of control | endpoint: median survival time, dose: 200.0 mg/kg/injection, schedule: Q01DX009 (ip), vehicle: saline with Tween-80 108 % of control | endpoint: median survival time, dose: 400.0 mg/kg/injection, schedule: Q01DX009 (ip), vehicle: saline with Tween-80 113 % of control | endpoint: median survival time, dose: 800.0 mg/kg/injection, schedule: Q01DX009 (ip), vehicle: saline with Tween-80 110 % of control

CC1=C(/C=C/C(O)CC(O)(C(F)(F)F)C(F)(F)F)C(C)(C)CCC1 (configuration not stated)
inactive: [4] 107 % of control | [5] 98 % of control | [6] 110 % of control

O=C(CBr)Nc1c2c(nc3ccccc13)CCCC2
inactive: endpoint: mean survival time, dose: 75.0 mg/kg/injection, schedule: Q01DX001 (ip), vehicle: saline with Tween-80 101 % of control | endpoint: mean survival time, dose: 150.0 mg/kg/injection, schedule: Q01DX001 (ip), vehicle: saline with Tween-80 104 % of control | endpoint: mean survival time, dose: 300.0 mg/kg/injection, schedule: Q01DX001 (ip), vehicle: saline with Tween-80 94 % of control

CCCCCCCCCCCCCCCC(=O)N(CCCN)C(C)(C)CCC(C)(C)N(CCCN)C(=O)CCCCCCCCCCCCCCC
inactive: endpoint: mean survival time, dose: 1.56 mg/kg/injection, schedule: Q01DX009 (ip), vehicle: water 106 % of control | endpoint: mean survival time, dose: 3.13 mg/kg/injection, schedule: Q01DX009 (ip), vehicle: water 98 % of control | endpoint: mean survival time, dose: 6.25 mg/kg/injection, schedule: Q01DX009 (ip), vehicle: water 104 % of control | endpoint: mean survival time, dose: 12.5 mg/kg/injection, schedule: Q01DX009 (ip), vehicle: water 102 % of control | endpoint: mean survival time, dose: 25.0 mg/kg/injection, schedule: Q01DX009 (ip), vehicle: water 89 % of control and 95 % of control

COc1cc2cccc(OC)c(=O)c2c(O)c1OC
inactive: endpoint: mean survival time, dose: 100.0 mg/kg/injection, schedule: Q01DX001 (ip), vehicle: saline 98 % of control | endpoint: mean survival time, dose: 200.0 mg/kg/injection, schedule: Q01DX001 (ip), vehicle: saline 101 % of control | endpoint: mean survival time, dose: 400.0 mg/kg/injection, schedule: Q01DX001 (ip), vehicle: saline 101 % of control

BrCC(Br)c1ccccc1 (configuration not stated)
inactive: [9] 100 % of control | [10] 100 % of control | [11] 96 % of control

O=C(O)C1C2CC3C(OC(=O)C31)C2Br (configuration not stated)
inactive: [4] 105 % of control | [5] 96 % of control | [6] 102 % of control

CC1=CC(=C2C=C(C)C(=O)C(C)=C2)C=C(C)C1=O
inactive: endpoint: mean survival time, dose: 50.0 mg/kg/injection, schedule: Q01DX001 (ip), vehicle: saline with Tween-80 87 % of control | endpoint: mean survival time, dose: 100.0 mg/kg/injection, schedule: Q01DX001 (ip), vehicle: saline with Tween-80 87 % of control | endpoint: mean survival time, dose: 200.0 mg/kg/injection, schedule: Q01DX001 (ip), vehicle: saline with Tween-80 91 % of control

CCOC(=O)/C(C#N)=C\c1cc([N+](=O)[O-])ccc1Cl
inactive: [9] 89 % of control | [10] 108 % of control | [11] 108 % of control
